The source of these data is patent US11053238B2, “Benzimidazole derivatives, preparation methods and uses thereof” (BETTA PHARMACEUTICALS CO., LTD, priority 2016, dated 2021).

The target in data set [1] is CDK2/cyclin E (Homo sapiens (Human), UniProt P24941). The experiment in a line: 33P-ATP radiometric CDK kinase inhibitory activity and selectivity test. The data set is classed as biochemical. The source says:
(§1) The mechanism of this method is shown in formula (II).
(§2) Data was processed with Prism4 Software (GraphPad), and the curve fitting formula was:
(§3) Y=Bottom+(Top−Bottom)/(1+10^((Log IC50−X)*HillSlope)); wherein, Y is percent inhibition (%); X is logarithm of concentration of the inhibitor.

Data set [2] deals with CDK9/cyclin T1 (Homo sapiens (Human), UniProt P50750). The data set is described as above. The data set is classed as biochemical.
CDK9/cyclin T1, sequence (P50750 whole entry, species assumed): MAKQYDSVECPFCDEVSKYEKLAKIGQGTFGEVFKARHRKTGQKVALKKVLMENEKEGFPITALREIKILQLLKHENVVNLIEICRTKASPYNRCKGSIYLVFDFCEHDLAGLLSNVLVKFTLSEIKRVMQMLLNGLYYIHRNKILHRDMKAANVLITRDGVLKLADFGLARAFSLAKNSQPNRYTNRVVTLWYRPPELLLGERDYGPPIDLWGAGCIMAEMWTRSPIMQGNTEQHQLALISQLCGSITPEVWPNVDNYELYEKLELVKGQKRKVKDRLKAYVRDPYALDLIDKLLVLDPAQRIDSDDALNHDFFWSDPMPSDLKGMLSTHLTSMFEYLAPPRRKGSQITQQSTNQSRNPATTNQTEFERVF
CDK9/cyclin T1, sequence (O60563 whole entry partner, species assumed): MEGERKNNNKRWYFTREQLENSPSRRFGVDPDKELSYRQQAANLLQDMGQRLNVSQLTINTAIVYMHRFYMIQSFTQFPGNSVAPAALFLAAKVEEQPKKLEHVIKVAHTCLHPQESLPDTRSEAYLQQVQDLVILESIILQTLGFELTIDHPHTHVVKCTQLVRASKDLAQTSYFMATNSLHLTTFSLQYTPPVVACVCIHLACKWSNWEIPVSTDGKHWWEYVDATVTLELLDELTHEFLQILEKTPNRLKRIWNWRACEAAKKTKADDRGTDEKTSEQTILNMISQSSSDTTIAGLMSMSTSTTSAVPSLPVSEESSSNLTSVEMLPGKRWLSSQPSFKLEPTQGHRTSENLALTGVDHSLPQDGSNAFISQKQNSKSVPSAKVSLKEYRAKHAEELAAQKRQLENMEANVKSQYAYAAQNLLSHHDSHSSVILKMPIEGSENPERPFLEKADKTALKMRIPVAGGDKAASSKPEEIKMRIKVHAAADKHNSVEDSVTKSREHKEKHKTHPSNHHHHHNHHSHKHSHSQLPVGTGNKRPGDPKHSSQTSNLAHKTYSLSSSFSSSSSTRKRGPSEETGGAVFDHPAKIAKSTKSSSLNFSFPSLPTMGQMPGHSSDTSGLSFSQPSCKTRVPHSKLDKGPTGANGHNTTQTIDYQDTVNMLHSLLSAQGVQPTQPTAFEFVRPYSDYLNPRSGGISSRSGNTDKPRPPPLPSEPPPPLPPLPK
Source text: as §1, §2, §3

The conditions of data set [3]: BALB/c mice, 200 mg/kg (qd); for observation (mortality) / Body weight (weight loss) / weight loss (in words): oral gavage; for Body weight (weight loss): vs vehicle control; for mice death in each group (6 mice): after treatment for 2 weeks.
The target in data set [4] is CDK2/CycA2 (Homo sapiens (Human), UniProt P24941). The experiment in a line: CDK kinase assay (Caliper, FAM-labeled peptide).
Data set [5] addresses CDK4/CycD3 (Homo sapiens (Human), UniProt P11802). The experiment in a line: CDK kinase assay (Caliper, FAM-labeled peptide).
In data set [6] the test system is Human colorectal cancer cells (colo-205). Put plainly: MTS cell viability assay (cell proliferation). The data set is classed as cell-based. The following applies: colo-205 cells, 7 days of exposure. Here is the method:
Effects of test compounds on in vitro proliferation were measured by MTS cell viability assay.
Human colorectal cancer cells (colo-205) is expanded in culture (colo-205 is grown in DMEM media with 12% FBS, 1% P/S, and 1% L-glutamine).
MTS Cell Viability Assay:
1. Seed cells at density of 4×10^3 cells per well of 96-wells plates, grow for 24 h;
2. Add varying concentrations of test compounds to the cells;
3. Incubate for 7 days of exposure;
4. Prepare reagents following the instructions in the Cell Proliferation Assay kit (Promega);
5. Change to serum-free medium with a final volume of 100 μl/well. Prepare a set of wells with medium only for background subtraction;
6. Add 20 μl MTS solution containing PMS to each well (final concentration of MTS will be 0.33 mg/mL);
7. Incubate 1 to 4 h at 37° C. in a humidified, 5% CO2 atmosphere;
8. Record absorbance at 490 nm using VICTOR™ X5 plate reader (PerkinElmer).
All experimental points were set up in three wells and all experiments were repeated at least three times.

Data set [7] deals with CDK6/cycD3 (Homo sapiens (Human), UniProt Q00534). Put plainly: CDK kinase assay (Caliper, FAM-labeled peptide). The following applies: read-out: IC50(CDK6); CDK6/cycD3, ATP 800 μM.
CDK6/cycD3, sequence (Q00534 whole entry, species assumed): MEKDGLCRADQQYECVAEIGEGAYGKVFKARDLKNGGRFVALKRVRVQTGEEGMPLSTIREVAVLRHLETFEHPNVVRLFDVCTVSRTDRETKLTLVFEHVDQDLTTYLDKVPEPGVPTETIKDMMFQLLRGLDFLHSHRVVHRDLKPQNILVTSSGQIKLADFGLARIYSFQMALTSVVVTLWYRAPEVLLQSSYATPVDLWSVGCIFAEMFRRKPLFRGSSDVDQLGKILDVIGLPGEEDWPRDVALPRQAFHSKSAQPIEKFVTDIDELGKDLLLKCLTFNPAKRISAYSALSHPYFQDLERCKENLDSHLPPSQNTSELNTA
CDK6/cycD3, sequence (P30281 whole entry partner, species assumed): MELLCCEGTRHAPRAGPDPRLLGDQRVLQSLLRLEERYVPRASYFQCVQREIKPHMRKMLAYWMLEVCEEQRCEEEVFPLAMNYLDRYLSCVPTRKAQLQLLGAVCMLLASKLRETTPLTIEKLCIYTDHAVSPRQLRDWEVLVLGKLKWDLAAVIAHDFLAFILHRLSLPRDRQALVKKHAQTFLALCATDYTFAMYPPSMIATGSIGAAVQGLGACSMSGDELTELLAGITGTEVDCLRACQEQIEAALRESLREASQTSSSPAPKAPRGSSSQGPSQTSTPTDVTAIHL
The test system of data set [8] is JeKo-1 cells. The experiment in a line: Tumor regression effect on JeKo-1 xenograft animal model. The format is in vivo, NOD/SCID mice. Conditions: 10-100 mg/kg orally once a day, 19 days. Here is the method: JeKo-1 cells were cultured in RPMI 1640 medium containing 20% fetal bovine serum. Exponentially growing JeKo-1 cells were collected and resuspended in PBS to a suitable concentration for NOD/SCID mice subcutaneous tumor inoculation. Seventy female mice were inoculated subcutaneously on the right with 5×10^6 JeKo-1 cells, resuspended in PBS and matrigel (1:1). When the average tumor volume reached 134 mm^3, the mice were randomly grouped according to the size of the tumor and were administrated. Forty-eight mice were divided into the experimental group, and the remaining twenty-two mice were not used for experiment. Tumor volume is calculated as: long diameter×short diameter^2/2. […] Efficacy is evaluated according to the relative tumor growth inhibition rate of TGI.
The higher the TGI (%) value illustrates the better the potency; and vice versa.

Where [9] appears, read: 33P-ATP, P81 membrane, read-out: CDK kinase inhibitory activity IC50, CDK2/cyclin E.
The mark [10] stands for this setting: text summary for CDK1/2/7/9, read-out: IC50 for inhibiting CDK2.
Where [11] appears, read: 33P-ATP, P81 membrane, read-out: CDK kinase inhibitory activity IC50, CDK9/cyclin T1.
Where [12] appears, read: text summary for CDK1/2/7/9, read-out: IC50 for inhibiting CDK9.
[13] abbreviates: IC50(CDK4), head-to-head comparison of substituent site, class symbols.

pIC50: −log10 of the molar value. Like-named read-outs stand apart in the source and are kept apart here.

CDK4/CycD3, sequence (P11802 whole entry, species assumed): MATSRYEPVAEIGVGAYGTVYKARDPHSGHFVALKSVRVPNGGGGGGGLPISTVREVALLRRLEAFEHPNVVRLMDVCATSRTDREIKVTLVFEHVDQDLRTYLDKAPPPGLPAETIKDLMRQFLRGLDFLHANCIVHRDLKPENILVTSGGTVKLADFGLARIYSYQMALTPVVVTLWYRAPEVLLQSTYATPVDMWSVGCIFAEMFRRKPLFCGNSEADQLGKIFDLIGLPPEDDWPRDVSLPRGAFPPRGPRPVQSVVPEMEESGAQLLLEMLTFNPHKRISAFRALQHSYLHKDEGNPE
CDK4/CycD3, sequence (P30281 whole entry partner, species assumed): as the sequence (P30281 whole entry partner, species assumed) above

For `CCN1CCN(Cc2ccc(Nc3ncc(F)c(-c4cc(F)c5nc6n(c5c4)C(C)CCC6)n3)nc2)CC1` (single isomer, unassigned) [Compound 2a, N-(5-((4-ethylpiperazin-1-yl)methyl)pyridin-2-yl)-5-fluoro-4-(6-fluoro-1-methyl-1,2,3,4-tetrahydrobenzo[4,5]imidazo[1,2-a]pyridin-8-yl)pyrimidin-2-amine], the pIC50 in data set [1] (setting [9]) is 6.22; in data set [1] (setting [10]) it was less than 6.40; in data set [2] (setting [11]), 6.11; in data set [2] (setting [12]) it was less than 6.40.
Consider `CCN1CCN(Cc2ccc(Nc3ncc(F)c(-c4cc(F)c5nc6n(c5c4)C(C)COC6)n3)nc2)CC1` (single isomer, unassigned) [Compound 16b, N-(5-((4-ethylpiperazin-1-yl)methyl)pyridin-2-yl)-5-fluoro-4-(9-fluoro-4-methyl-3,4-dihydro-1H-benzo[4,5]imidazo[2,1-c][1,4]oxazin-7-yl)pyrimidin-2-amine], for which, in data set [3], the “observation (mortality)” value was “−” and the “Body weight (weight loss)” value was “* (weight loss less than 5%)”. In data set [4], the pIC50 was less than 6.52.
As for `CCN1CCN(Cc2ccc(Nc3ncc(F)c(-c4cc(F)c5nc6n(c5c4)CCCC6C)n3)nc2)CC1` (stereo not drawn) [Com. EX. No. 10, N-(5((4-ethylpiperazin-l-yl)methyl)pyridin-2-yl)-5-fluoro-4-(6-fluoro-4-methyl-1,2,3,4-tetrahydrobenzo[4,5]imidazo[1,2-a]pyridin-8-yl) pyrimidin-2-amine], the pIC50 in data set [5] (setting [13]) was 5.70 to 6.00.
Still for that read-out and setting: the result for `CCN1CCN(Cc2ccc(Nc3ncc(F)c(-c4cc(F)c5nc6n(c5c4)CC(C)CC6)n3)nc2)CC1` (stereo not drawn) [Com. EX. No. 8, N-(5-((4-ethylpiperazin-1-yl)methyl)pyridin-2-yl)-5-fluoro-4-(6-fluoro-2-methyl-1,2,3,4-tetrahydrobenzo[4,5]imidazo[1,2-a]pyridin-8-yl) pyrimidin-2-amine] reads 5.70 to 6.00.
In data set [6], `CCN1CCN(Cc2ccc(Nc3ncc(F)c(-c4cc(F)c5nc(C)n(C(C)C)c5c4)n3)nc2)CC1` [LY2835219, Abemaciclib] gave a pIC50 of 6.87. Also, the “observation (mortality)” value in data set [3] is on record as “−”.
`CC1CCCc2nc3c(F)cc(-c4ccnc(Nc5ccc(N6CCN(C)CC6)cn5)n4)cc3n21` (stereo not drawn) [Compound 1, 4-(6-fluoro-1-methyl-1,2,3,4-tetrahydrobenzo[4,5]imidazo[1,2-a]pyridin-8-yl)-N-(5-(4-methylpiperazin-1-yl)pyridin-2-yl)pyrimidin-2-amine]: the pIC50 was 7.11 in data set [6] and less than 6.52 in data set [4].
`CN1CCN(c2ccc(Nc3ncc(F)c(-c4cc(F)c5nc6n(c5c4)C4(CCC6)CC4)n3)nc2)CC1` [Com. EX. 1, 5-fluoro-4-(6-fluoro-3,4-dihydro-2 H-spiro[benzo[4,5]imidazo,[1,2-a]pyridine-1,1′-cyclopropan]-8-yl)-N-(5-(4-methylpiperazin-1-yl)pyridin-2-yl)pyrimidin-2-amine] showed a pIC50 in data set [6] of 5.18.
Regarding `CC1CCCn2c1nc1c(F)cc(-c3ccnc(Nc4ccc(N5CCN(C)CC5)cn4)n3)cc12` (stereo not drawn) [Com. EX. No. 7, 4-(6-fluoro-4-methyl-1,2,3,4-tetra hydrobenzo[4,5]imidazo[1,2-a]pyridin-8-yl)-N-(5-(4-methylpiperazin-1-yl)pyridin-2-yl)pyrimidin-2-a mine], the pIC50 in data set [5] is 7.24; in data set [7], 6.96.
With `CCN1CCN(Cc2ccc(Nc3ncc(F)c(-c4cc(F)c5nc6n(c5c4)[C@H](C(C)C)COC6)n3)nc2)CC1` [Com. EX. 3b, (R)-N-(5-((4-ethylpiperazin-1-yl)methyl)pyridin-2-yl)-5-fluoro-4-(9-fluoro-4-isopropyl-3,4-dihydro-1 H-benzo[4,5]imidazo[2,1-c][1,4]oxazin-7-yl)pyrimidin-2-amine], in data set [3], the “mice death in each group (6 mice)” value stood at 4; the “observation (mortality)” value is recorded as “+”; the “weight loss (in words)” value was “much more weight loss”; the “Body weight (weight loss)” value is “*** (weight loss more than 10% and less than 30%)”.
On to `CCN1CCN(Cc2ccc(Nc3ncc(F)c(-c4cc(F)c5nc6n(c5c4)C(C)CCC6)n3)nc2)CC1` (stereo not drawn) [Compound 2, N-(5-((4-ethylpiperazin-1-yl)methyl)pyridin-2-yl)-5-fluoro-4-(6-fluoro-1-methyl-1,2,3,4-tetrahydrobenzo[4,5]imidazo[1,2-a]pyridin-8-yl)pyrimidin-2-amine], for which the pIC50 in data set [6] is 7.28; in data set [1] (setting [9]), 6.32; in data set [1] (setting [10]), less than 6.40; in data set [2] (setting [11]), 6.24; in data set [2] (setting [12]) it was less than 6.40; in data set [4], less than 6.52. Further, the “weight loss (in words)” value in data set [3] is “almost little weight loss”.
`CN1CCN(c2ccc(Nc3ncc(F)c(-c4cc(F)c5nc6n(c5c4)CCCC6)n3)nc2)CC1` [Com. EX. 2, 5-fluoro-4-(6-fluoro-1,2,3,4-tetrahydrobenzo[4,5]imidazo[1,2-a]pyridin-8-yl)-N-(5-(4-methylpiperazin-1-yl)pyridin-2-yl)pyrimidin-2-amine]: the pIC50 in data set [6] was 5.05.
Molecule `CC1(C)CCCc2nc3c(F)cc(-c4nc(Nc5ccc(N6CCN(C7COC7)CC6)cn5)ncc4F)cc3n21` [Com. EX. 5, 5-fluoro-4-(6-fluoro-1,1-dimethyl-1,2,3,4-tetrahydrobenzo[4,5]imidazo[1,2-a]pyridin-8-yl)-N-(5-(4-(oxetan-3-yl)piperazin-1-yl)pyridin-2-yl)pyrimidin-2-amine, reference compound] showed a pIC50 in data set [4] of 7.40.
With `CC1(C)CCCc2nc3c(F)cc(-c4nc(Nc5ccc(CN6CCNCC6)cn5)ncc4F)cc3n21` [Com. EX. 6, 5-fluoro-4-(6-fluoro-1,1-dimethyl-1,2,3,4-tetrahydrobenzo[4,5]imidazo[1,2-a]pyridin-8-yl)-N-(5-(piperazin-1-ylmethyl)pyridin-2-yl)pyri midin-2-amine, reference compound], the pIC50 in data set [4] is 7.40.
As for `CCN1CCN(Cc2ccc(Nc3ncc(F)c(-c4cc(F)c5nc6n(c5c4)C(C)COC6)n3)nc2)CC1` (stereo not drawn) [Compound 16, N-(5-((4-ethylpiperazin-1-yl)methyl)pyridin-2-yl)-5-fluoro-4-(9-fluoro-4-methyl-3,4-dihydro-1H-benzo[4,5]imidazo[2,1-c][1,4]oxazin-7-yl)pyrimidin-2-amine], the “weight loss (in words)” value in data set [3] is “almost little weight loss”.
On to `CC[C@@H]1COCc2nc3c(F)cc(-c4nc(Nc5ccc(CN6CCN(CC)CC6)cn5)ncc4F)cc3n21` [Com. EX. 4b, (R)-4-(4-ethyl-9-fluoro-3,4-dihydro-1H-benzo[4,5]imidazo[2,1-c][1, 4]oxazin-7-yl)-N-(5-((4-ethylpiperazin-l-yl)methyl)pyridin-2-yl)-5-f luoropyimidin-2-amine], for which, in data set [3], the “mice death in each group (6 mice)” value was found to be 5; the “observation (mortality)” value was “+”; the “weight loss (in words)” value is listed as “much more weight loss”; the “Body weight (weight loss)” value was “*** (weight loss more than 10% and less than 30%)”.
On to `CCN1CCN(Cc2ccc(Nc3ncc(F)c(-c4cc(F)c5nc6n(c5c4)C(C)CCC6)n3)nc2)CC1` (single isomer, unassigned) [Compound 2b, N-(5-((4-ethylpiperazin-1-yl)methyl)pyridin-2-yl)-5-fluoro-4-(6-fluoro-1-methyl-1,2,3,4-tetrahydrobenzo[4,5]imidazo[1,2-a]pyridin-8-yl)pyrimidin-2-amine], for which the pIC50 in data set [1] (setting [9]) was 6.36; in data set [1] (setting [10]), less than 6.40; in data set [2] (setting [11]), 6.19; in data set [2] (setting [12]), less than 6.40. Further, in data set [8], the “anti-tumor activity (in words)” value is recorded as “excellent anti-tumor activity”. Further, the “observation (mortality)” value in data set [3] is “−”. For the same molecule, the “Body weight (weight loss)” value in data set [3] is listed as “* (weight loss less than 5%)”.
